Experimental data reported in the kinase profiling compilation of Christmann-Franck et al. (2016).

Columns and labels:
Experiment in all cases: KINOMEscan competition binding
Details in all cases: compound 10.0 µM
[1] = target: MAP3K11 (human) (UniProt Q16584)
[2] = target: MAP2K3 (human) (UniProt P46734)
[3] = target: AURKA (human) (UniProt O14965)
[4] = target: CDK5 (human) (UniProt Q00535)
[5] = target: CAMK2B (human) (UniProt Q13554)
[6] = target: AURKC (human) (UniProt Q9UQB9)
[7] = target: OXSR1 (human) (UniProt O95747)
[8] = test system: RET (human), P07949 [M918T]
[9] = target: CDK14 (human) (UniProt O94921)
Sequence of CDK14 (human) (O94921 whole entry, looked up): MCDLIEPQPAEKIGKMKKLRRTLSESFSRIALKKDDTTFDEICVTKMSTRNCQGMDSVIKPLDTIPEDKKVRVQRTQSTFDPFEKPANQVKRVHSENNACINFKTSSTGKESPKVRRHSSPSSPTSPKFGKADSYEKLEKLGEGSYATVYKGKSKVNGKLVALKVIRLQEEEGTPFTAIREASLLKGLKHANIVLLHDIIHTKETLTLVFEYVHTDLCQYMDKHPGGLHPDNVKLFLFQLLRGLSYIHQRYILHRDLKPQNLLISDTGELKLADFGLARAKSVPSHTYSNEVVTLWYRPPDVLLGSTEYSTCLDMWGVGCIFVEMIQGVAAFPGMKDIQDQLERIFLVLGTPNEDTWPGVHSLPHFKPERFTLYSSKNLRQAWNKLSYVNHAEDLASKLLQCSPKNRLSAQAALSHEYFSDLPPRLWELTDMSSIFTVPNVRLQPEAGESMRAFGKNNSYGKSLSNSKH

[10] = target: MST4 (human) (UniProt Q9P289)
[11] = target: MAP2K4 (human) (UniProt P45985)
[12] = target: STK36 (human) (UniProt Q9NRP7)
[13] = target: CSNK1G1 (human) (UniProt Q9HCP0)
[14] = target: TTK (human) (UniProt P33981)
[15] = target: MAP2K1 (human) (UniProt Q02750)
[16] = target: AXL (human) (UniProt P30530)
Sequence of AXL (human) (P30530 whole entry, looked up): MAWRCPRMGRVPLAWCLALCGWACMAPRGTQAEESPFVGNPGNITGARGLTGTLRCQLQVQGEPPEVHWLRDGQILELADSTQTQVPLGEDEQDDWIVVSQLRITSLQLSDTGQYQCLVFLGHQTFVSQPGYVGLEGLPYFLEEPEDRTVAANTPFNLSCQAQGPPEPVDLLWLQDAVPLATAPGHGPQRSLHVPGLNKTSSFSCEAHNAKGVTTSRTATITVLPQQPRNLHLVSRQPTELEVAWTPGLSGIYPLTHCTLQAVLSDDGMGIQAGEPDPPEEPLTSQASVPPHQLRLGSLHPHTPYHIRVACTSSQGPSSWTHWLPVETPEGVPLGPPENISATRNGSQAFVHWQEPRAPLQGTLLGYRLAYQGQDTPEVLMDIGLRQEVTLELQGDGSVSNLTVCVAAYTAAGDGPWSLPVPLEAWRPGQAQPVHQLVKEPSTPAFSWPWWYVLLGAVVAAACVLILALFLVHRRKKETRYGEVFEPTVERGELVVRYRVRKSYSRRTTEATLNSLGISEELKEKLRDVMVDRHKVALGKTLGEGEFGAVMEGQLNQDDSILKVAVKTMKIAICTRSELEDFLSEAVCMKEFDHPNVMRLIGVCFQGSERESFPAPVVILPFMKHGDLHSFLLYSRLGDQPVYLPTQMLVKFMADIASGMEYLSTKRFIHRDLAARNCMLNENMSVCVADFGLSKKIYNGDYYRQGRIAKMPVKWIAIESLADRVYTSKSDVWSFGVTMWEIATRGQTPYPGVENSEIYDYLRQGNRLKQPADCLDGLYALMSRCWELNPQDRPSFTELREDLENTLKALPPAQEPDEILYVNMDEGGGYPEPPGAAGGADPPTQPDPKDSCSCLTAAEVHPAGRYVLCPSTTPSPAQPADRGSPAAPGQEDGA

[17] = target: TGFBR1 (human) (UniProt P36897)
[18] = target: PRKD1 (human) (UniProt Q15139)
[19] = target: NEK9 (human) (UniProt Q8TD19)
[20] = target: CAMK4 (human) (UniProt Q16566)
[21] = target: STK16 (human) (UniProt O75716)
Sequence of STK16 (human) (O75716 whole entry, looked up): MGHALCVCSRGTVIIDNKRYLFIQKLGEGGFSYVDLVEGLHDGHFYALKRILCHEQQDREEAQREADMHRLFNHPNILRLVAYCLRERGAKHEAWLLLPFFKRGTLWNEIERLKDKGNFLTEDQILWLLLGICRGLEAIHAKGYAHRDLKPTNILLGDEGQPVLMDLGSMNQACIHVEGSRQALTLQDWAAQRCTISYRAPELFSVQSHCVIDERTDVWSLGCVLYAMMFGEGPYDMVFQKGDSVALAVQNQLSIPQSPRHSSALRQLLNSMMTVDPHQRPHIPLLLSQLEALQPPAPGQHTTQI

[22] = target: MAP3K6 (human) (UniProt O95382)
[23] = target: HIPK4 (human) (UniProt Q8NE63)
[24] = target: ICK (human) (UniProt Q9UPZ9)
[25] = target: STK24 (human) (UniProt Q9Y6E0)
[26] = target: PLK3 (human) (UniProt Q9H4B4)
[27] = target: STK38L (human) (UniProt Q9Y2H1)
[28] = target: PHKG1 (human) (UniProt Q16816)
Sequence of PHKG1 (human) (Q16816 whole entry, looked up): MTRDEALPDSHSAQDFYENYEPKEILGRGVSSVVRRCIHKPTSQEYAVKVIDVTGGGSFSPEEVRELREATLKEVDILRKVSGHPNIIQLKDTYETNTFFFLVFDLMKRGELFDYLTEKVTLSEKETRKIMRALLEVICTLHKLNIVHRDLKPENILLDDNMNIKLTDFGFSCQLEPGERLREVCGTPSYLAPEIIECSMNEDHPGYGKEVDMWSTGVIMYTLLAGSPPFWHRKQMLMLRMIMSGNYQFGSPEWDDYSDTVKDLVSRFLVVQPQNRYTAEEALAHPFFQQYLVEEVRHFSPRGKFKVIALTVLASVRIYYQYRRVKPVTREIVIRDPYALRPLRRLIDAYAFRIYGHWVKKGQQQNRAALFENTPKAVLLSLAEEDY

[29] = target: STK3 (human) (UniProt Q13188)
Sequence of STK3 (human) (Q13188 whole entry, looked up): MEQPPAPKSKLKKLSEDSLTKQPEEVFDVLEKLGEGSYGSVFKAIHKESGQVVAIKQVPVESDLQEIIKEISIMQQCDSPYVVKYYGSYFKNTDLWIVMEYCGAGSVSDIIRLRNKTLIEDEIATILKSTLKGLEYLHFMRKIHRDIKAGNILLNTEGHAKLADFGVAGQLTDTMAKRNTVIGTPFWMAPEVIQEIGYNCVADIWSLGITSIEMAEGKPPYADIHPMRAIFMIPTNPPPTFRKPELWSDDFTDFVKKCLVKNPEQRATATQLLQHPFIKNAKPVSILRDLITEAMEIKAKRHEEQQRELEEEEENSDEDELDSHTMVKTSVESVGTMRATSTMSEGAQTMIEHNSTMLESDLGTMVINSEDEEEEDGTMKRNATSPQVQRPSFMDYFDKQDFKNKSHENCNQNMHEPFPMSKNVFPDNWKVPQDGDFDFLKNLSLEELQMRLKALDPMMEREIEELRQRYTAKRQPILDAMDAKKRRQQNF

[30] = target: PKMYT1 (human) (UniProt Q99640)
[31] = target: JAK2 JH1 catalytic (human) (UniProt O60674)
[32] = test system: KIT (human), P10721 [V559D/V654A]
[33] = target: MAPKAPK5 (human) (UniProt Q8IW41)
[34] = target: RIPK2 (human) (UniProt O43353)
Sequence of RIPK2 (human) (O43353 whole entry, looked up): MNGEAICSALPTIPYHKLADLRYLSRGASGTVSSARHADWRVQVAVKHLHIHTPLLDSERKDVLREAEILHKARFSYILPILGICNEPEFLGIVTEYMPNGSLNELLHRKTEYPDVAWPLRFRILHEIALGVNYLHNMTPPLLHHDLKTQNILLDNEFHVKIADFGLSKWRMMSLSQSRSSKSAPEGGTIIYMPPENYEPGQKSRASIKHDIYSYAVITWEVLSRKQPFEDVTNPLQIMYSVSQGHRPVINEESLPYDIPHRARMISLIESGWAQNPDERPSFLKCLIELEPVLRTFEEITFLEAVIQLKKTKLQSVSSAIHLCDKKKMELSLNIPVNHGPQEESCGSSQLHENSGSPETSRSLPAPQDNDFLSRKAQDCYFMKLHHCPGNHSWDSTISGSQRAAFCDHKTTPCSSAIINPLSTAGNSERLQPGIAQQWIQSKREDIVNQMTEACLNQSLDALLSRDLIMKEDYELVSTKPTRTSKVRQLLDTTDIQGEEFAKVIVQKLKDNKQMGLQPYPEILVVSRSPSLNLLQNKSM

[35] = target: DYRK1A (human) (UniProt Q13627)
[36] = target: TLK1 (human) (UniProt Q9UKI8)
[37] = target: GAK (human) (UniProt O14976)
[38] = target: DAPK1 (human) (UniProt P53355)
[39] = target: MAP2K7 (human) (UniProt O14733)
Sequence of MAP2K7 (human) (O14733 whole entry, looked up): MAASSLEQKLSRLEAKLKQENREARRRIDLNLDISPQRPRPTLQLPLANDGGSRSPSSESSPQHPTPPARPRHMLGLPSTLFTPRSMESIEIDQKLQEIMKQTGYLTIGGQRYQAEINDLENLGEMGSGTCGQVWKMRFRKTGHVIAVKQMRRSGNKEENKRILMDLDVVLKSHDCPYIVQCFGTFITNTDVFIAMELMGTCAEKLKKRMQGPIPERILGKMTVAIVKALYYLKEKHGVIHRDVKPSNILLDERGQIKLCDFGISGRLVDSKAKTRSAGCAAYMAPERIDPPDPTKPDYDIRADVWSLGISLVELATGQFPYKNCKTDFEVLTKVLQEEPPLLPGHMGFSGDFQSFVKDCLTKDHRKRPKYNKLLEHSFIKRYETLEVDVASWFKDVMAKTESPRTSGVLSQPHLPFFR

[40] = target: NEK3 (human) (UniProt P51956)

Sequence of CDK5 (human) (Q00535 whole entry, looked up): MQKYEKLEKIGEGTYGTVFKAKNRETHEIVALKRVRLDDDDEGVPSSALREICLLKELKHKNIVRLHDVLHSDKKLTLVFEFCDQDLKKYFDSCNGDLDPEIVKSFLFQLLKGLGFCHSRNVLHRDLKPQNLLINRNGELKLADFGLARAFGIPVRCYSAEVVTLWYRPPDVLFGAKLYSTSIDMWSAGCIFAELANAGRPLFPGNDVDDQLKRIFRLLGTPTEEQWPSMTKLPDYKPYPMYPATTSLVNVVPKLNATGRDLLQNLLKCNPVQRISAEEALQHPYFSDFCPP
Sequence of MAP3K11 (human) (Q16584 whole entry, looked up): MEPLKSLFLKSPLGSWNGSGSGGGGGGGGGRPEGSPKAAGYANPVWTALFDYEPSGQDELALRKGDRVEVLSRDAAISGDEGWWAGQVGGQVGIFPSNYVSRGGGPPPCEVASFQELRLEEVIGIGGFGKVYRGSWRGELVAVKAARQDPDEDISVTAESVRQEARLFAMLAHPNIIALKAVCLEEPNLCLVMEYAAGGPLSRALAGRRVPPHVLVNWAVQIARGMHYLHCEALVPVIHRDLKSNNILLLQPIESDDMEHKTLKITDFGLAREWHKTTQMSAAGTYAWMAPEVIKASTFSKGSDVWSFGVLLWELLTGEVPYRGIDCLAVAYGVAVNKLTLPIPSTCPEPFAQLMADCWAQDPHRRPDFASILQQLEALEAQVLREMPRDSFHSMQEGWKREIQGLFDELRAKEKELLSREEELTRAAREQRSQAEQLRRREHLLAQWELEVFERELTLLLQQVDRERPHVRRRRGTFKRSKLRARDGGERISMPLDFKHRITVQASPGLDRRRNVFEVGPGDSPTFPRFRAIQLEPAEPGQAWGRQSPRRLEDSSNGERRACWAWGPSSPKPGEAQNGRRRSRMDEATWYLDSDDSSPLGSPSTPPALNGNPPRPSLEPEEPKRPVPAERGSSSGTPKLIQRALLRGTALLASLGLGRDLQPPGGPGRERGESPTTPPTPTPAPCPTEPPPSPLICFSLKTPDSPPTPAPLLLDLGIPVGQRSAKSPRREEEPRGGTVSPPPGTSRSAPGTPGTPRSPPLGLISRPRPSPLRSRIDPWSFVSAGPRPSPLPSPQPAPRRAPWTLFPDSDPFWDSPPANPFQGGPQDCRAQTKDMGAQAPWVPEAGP
Sequence of MAP2K3 (human) (P46734 whole entry, looked up): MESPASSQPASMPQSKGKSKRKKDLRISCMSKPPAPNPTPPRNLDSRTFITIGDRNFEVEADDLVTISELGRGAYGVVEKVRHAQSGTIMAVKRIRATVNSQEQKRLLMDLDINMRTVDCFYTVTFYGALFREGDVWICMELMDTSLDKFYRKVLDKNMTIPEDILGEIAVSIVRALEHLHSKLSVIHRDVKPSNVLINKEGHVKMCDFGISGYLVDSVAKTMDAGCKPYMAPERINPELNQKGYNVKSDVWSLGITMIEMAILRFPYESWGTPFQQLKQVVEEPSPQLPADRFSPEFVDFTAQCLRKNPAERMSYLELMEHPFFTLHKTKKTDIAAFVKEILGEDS

Compound `COc1cc(N2CCN(C)CC2)ccc1Nc1ncc2c(n1)N(C)c1ccccc1C(=O)N2C` has a kinase still bound, per cent of control [1] of 100%, a kinase still bound, per cent of control [2] of 100% and a kinase still bound, per cent of control [3] of 100%. It also gave a kinase still bound, per cent of control [4] of 100%, a kinase still bound, per cent of control [5] of 100% and a kinase still bound, per cent of control [6] of 100%. The kinase still bound, per cent of control [7] was 100%, the kinase still bound, per cent of control [8] was 100% and the kinase still bound, per cent of control [9] was 100%. It also gave a kinase still bound, per cent of control [10] of 100%, a kinase still bound, per cent of control [11] of 100% and a kinase still bound, per cent of control [12] of 100%. It also gave a kinase still bound, per cent of control [13] of 100%, a kinase still bound, per cent of control [14] of 26% and a kinase still bound, per cent of control [15] of 100%. It also gave a kinase still bound, per cent of control [16] of 100%, a kinase still bound, per cent of control [17] of 100% and a kinase still bound, per cent of control [18] of 3.8%. The kinase still bound, per cent of control [19] was 100%, the kinase still bound, per cent of control [20] was 100% and the kinase still bound, per cent of control [21] was 100%. It also gave a kinase still bound, per cent of control [22] of 100%, a kinase still bound, per cent of control [23] of 100% and a kinase still bound, per cent of control [24] of 100%. For the same compound, the kinase still bound, per cent of control [25] was 100%, the kinase still bound, per cent of control [26] was 100% and the kinase still bound, per cent of control [27] was 100%. It also gave a kinase still bound, per cent of control [28] of 100%, a kinase still bound, per cent of control [29] of 100% and a kinase still bound, per cent of control [30] of 100%. It also gave a kinase still bound, per cent of control [31] of 100%, a kinase still bound, per cent of control [32] of 100% and a kinase still bound, per cent of control [33] of 100%. It also gave a kinase still bound, per cent of control [34] of 100%, a kinase still bound, per cent of control [35] of 100% and a kinase still bound, per cent of control [36] of 100%. The kinase still bound, per cent of control [37] was 9.8% and the kinase still bound, per cent of control [38] was 100%.

For `N#CCNC(=O)c1ccc(-c2ccnc(Nc3ccc(N4CCOCC4)cc3)n2)cc1`, the kinase still bound, per cent of control [1] was 95%, the kinase still bound, per cent of control [2] was 53% and the kinase still bound, per cent of control [3] was 12%. The kinase still bound, per cent of control [4] was 100%, the kinase still bound, per cent of control [5] was 14% and the kinase still bound, per cent of control [6] was 18%. The kinase still bound, per cent of control [7] was 58%, the kinase still bound, per cent of control [8] was 78% and the kinase still bound, per cent of control [9] was 76%. For the same compound, the kinase still bound, per cent of control [10] was 83%, the kinase still bound, per cent of control [11] was 32% and the kinase still bound, per cent of control [12] was 95%. The kinase still bound, per cent of control [13] was 100%, the kinase still bound, per cent of control [14] was 22% and the kinase still bound, per cent of control [15] was 100%. For the same compound, the kinase still bound, per cent of control [16] was 57%, the kinase still bound, per cent of control [17] was 76% and the kinase still bound, per cent of control [18] was 22%. For the same compound, the kinase still bound, per cent of control [19] was 9.4%, the kinase still bound, per cent of control [20] was 100% and the kinase still bound, per cent of control [21] was 6.2%. The kinase still bound, per cent of control [22] was 100%, the kinase still bound, per cent of control [23] was 12% and the kinase still bound, per cent of control [24] was 100%. The kinase still bound, per cent of control [25] was 64%, the kinase still bound, per cent of control [39] was 100% and the kinase still bound, per cent of control [26] was 11%. The kinase still bound, per cent of control [27] was 71%, the kinase still bound, per cent of control [28] was 78% and the kinase still bound, per cent of control [29] was 52%. It also gave a kinase still bound, per cent of control [30] of 100%, a kinase still bound, per cent of control [31] of 0.1% and a kinase still bound, per cent of control [32] of 100%. It also gave a kinase still bound, per cent of control [33] of 4.4%, a kinase still bound, per cent of control [34] of 88% and a kinase still bound, per cent of control [35] of 66%. For the same compound, the kinase still bound, per cent of control [36] was 59%, the kinase still bound, per cent of control [37] was 3.4% and the kinase still bound, per cent of control [38] was 7%.

For `C[C@@H](Oc1cc(-c2cnn(C3CCNCC3)c2)cnc1N)c1c(Cl)ccc(F)c1Cl`, the kinase still bound, per cent of control [1] was 81%, the kinase still bound, per cent of control [2] was 42% and the kinase still bound, per cent of control [4] was 100%. For the same compound, the kinase still bound, per cent of control [6] was 3.4%, the kinase still bound, per cent of control [9] was 92% and the kinase still bound, per cent of control [10] was 13%. It also gave a kinase still bound, per cent of control [11] of 93%, a kinase still bound, per cent of control [12] of 100% and a kinase still bound, per cent of control [13] of 100%. For the same compound, the kinase still bound, per cent of control [14] was 50%, the kinase still bound, per cent of control [15] was 64% and the kinase still bound, per cent of control [16] was 5.3%. The kinase still bound, per cent of control [17] was 4%, the kinase still bound, per cent of control [18] was 2.4% and the kinase still bound, per cent of control [19] was 6.2%. For the same compound, the kinase still bound, per cent of control [20] was 100%, the kinase still bound, per cent of control [21] was 63% and the kinase still bound, per cent of control [22] was 87%. For the same compound, the kinase still bound, per cent of control [23] was 15%, the kinase still bound, per cent of control [25] was 44% and the kinase still bound, per cent of control [39] was 83%. The kinase still bound, per cent of control [26] was 85%, the kinase still bound, per cent of control [27] was 95% and the kinase still bound, per cent of control [28] was 100%. For the same compound, the kinase still bound, per cent of control [29] was 0%, the kinase still bound, per cent of control [30] was 100% and the kinase still bound, per cent of control [31] was 1.4%. It also gave a kinase still bound, per cent of control [40] of 100%, a kinase still bound, per cent of control [32] of 100% and a kinase still bound, per cent of control [33] of 68%. For the same compound, the kinase still bound, per cent of control [34] was 11%, the kinase still bound, per cent of control [35] was 100% and the kinase still bound, per cent of control [36] was 61%. It also gave a kinase still bound, per cent of control [37] of 79% and a kinase still bound, per cent of control [38] of 74%.

`CNC(=O)c1cc(Oc2ccc(NC(=O)Nc3ccc(Cl)c(C(F)(F)F)c3)cc2)ccn1` showed a kinase still bound, per cent of control [1] of 99%, a kinase still bound, per cent of control [2] of 97% and a kinase still bound, per cent of control [3] of 80%. It also gave a kinase still bound, per cent of control [4] of 39%, a kinase still bound, per cent of control [5] of 84% and a kinase still bound, per cent of control [6] of 100%. For the same compound, the kinase still bound, per cent of control [7] was 100%, the kinase still bound, per cent of control [8] was 0.1% and the kinase still bound, per cent of control [9] was 8.6%. It also gave a kinase still bound, per cent of control [10] of 100%, a kinase still bound, per cent of control [11] of 100% and a kinase still bound, per cent of control [12] of 23%. For the same compound, the kinase still bound, per cent of control [13] was 100%, the kinase still bound, per cent of control [14] was 15% and the kinase still bound, per cent of control [15] was 100%. The kinase still bound, per cent of control [16] was 7.8%, the kinase still bound, per cent of control [17] was 100% and the kinase still bound, per cent of control [18] was 32%. For the same compound, the kinase still bound, per cent of control [19] was 79%, the kinase still bound, per cent of control [20] was 100% and the kinase still bound, per cent of control [21] was 100%. For the same compound, the kinase still bound, per cent of control [22] was 100%, the kinase still bound, per cent of control [24] was 92% and the kinase still bound, per cent of control [25] was 97%. For the same compound, the kinase still bound, per cent of control [39] was 88%, the kinase still bound, per cent of control [27] was 100% and the kinase still bound, per cent of control [28] was 90%. It also gave a kinase still bound, per cent of control [29] of 85%, a kinase still bound, per cent of control [30] of 94% and a kinase still bound, per cent of control [31] of 80%. For the same compound, the kinase still bound, per cent of control [40] was 70%, the kinase still bound, per cent of control [33] was 100% and the kinase still bound, per cent of control [34] was 18%. The kinase still bound, per cent of control [35] was 100%, the kinase still bound, per cent of control [36] was 100% and the kinase still bound, per cent of control [37] was 80%. It also gave a kinase still bound, per cent of control [38] of 99%.
